Data reported in PMC12040169 (PLOS Biology, 2025).

test: in vitro; settings: human, hela cells, % viability

SMILES	viability at 28.5 h, 10 µM [%]
O=C(c1cccc(F)c1)N1C2CCC1CC(O)(c1cccnc1F)C2 (stereo not drawn) [CBK284422]	104
Cc1ccc(C(=O)N2C3CCC2CC(O)(c2cccnc2F)C3)o1 (stereo not drawn) [CBK284423]	104
Cn1nccc1C(=O)C1CCN(C(=O)c2cccs2)CC1 [CBK284424]	95.1
Cn1nccc1C(=O)C1CCN(C(=O)c2ccccc2F)CC1 [CBK284425]	94.5
Cc1cc(C(=O)N2CCC(C(=O)c3ccnn3C)CC2)sc1C [CBK284428]	89.3
c1ccc2c3c([nH]c2c1)C12CCN(CC1)C(C1CCOC1)N2CC3 (stereo not drawn) [CBK284433]	88.2
c1ccc2c3c([nH]c2c1)C12CCN(CC1)C(c1ccncc1)N2CC3 (stereo not drawn) [CBK284434]	88.5
Cc1cccc(C2N3CCC4(CC3)c3[nH]c5ccccc5c3CCN24)n1 (stereo not drawn) [CBK284435]	90.5
Fc1ccc2[nH]c3c(c2c1)CCN1C(c2cccnc2)N2CCC31CC2 (stereo not drawn) [CBK284436]	87.6
Fc1ccc2[nH]c3c(c2c1)CCN1C(c2ccncc2)N2CCC31CC2 (stereo not drawn) [CBK284437]	78.6
O=C1NC2(CCC(=O)N(Cc3ccccc3)CC2)Oc2ccccc21 (stereo not drawn) [CBK284438]	91.6
CC(C)NC(=O)C1CC2CCC1(C)C[C@]21NC(=O)c2ccccc2N1 (stereo partly drawn) [CBK284444]	88.7
CC12CCC(CC1C(=O)NC1CC1)[C@]1(C2)NC(=O)c2ccccc2N1 (stereo partly drawn) [CBK284445]	92.2
O=C1NC2(CC3CCC2N3Cc2ccco2)Nc2ccccc21 (stereo not drawn) [CBK284446]	91.8
CC(=O)N1CC2(CCN(C(=O)c3ccco3)CC2)Nc2ccccc21 [CBK284447]	95.5
O=C(C1CC1)N1C2CCC1Cn1c(nc3ccccc3c1=O)C2 (stereo not drawn) [CBK284451]	92.2
O=C1N[C@@]2(CC3CCC2CC3C(=O)NC2CC2)Nc2ccccc21 (stereo partly drawn) [CBK284454]	85.9
CN1CCC2(CCC1=O)CC(N)c1ccccc1O2 (stereo not drawn) [CBK284456]	103
Cc1cnn(CC(=O)N2CCC(c3cc4ncccc4[nH]3)CC2)c1 [CBK284458]	77.2
CN(C)c1ccc(C(=O)N2CCC(c3cc4ncccc4[nH]3)CC2)cc1 [CBK284459]	93.3
Cc1cc(-c2ccc(=O)n(C3CCN(C(=O)C4CC4)CC3)n2)c(C)o1 [CBK284462]	87.2
CC(C)(C)OC(=O)N1CCCC2(CCCN(C(=O)c3ccco3)C2)C1 (stereo not drawn) [CBK284463]	94.7
COc1ccccc1CC(=O)N1CCC(c2onc3c2CCC3)CC1 [CBK284464]	99.2

SMILES	viability at 28.5 h, 10 µM [%]
CC1CCc2nn(CCNC(=O)Cc3cccs3)c(=O)cc2C1 (stereo not drawn) [CBK284465]	88.8
O=C1CCN(C(=O)c2ccccn2)CCN1Cc1cccc(F)c1 [CBK284467]	90.5
Cc1ccc2c(c1)C(=O)CC1(CC3CCC1N3C(=O)C(C)C)O2 (stereo not drawn) [CBK284468]	87.1
CN1C(=O)C(C)(C)Oc2ccc(C(O)c3ccco3)cc21 (stereo not drawn) [CBK284469]	89.8
COc1cc2c(cc1OC)C1c3ccccc3NC(=O)N1CC2 (stereo not drawn) [CBK284471]	88
Cc1ccc2c(c1)oc(=O)n2CCNC(=O)c1cccs1 [CBK284472]	99.9
Cc1c(CN2CCCC(n3cnc4cc(F)ccc43)C2)cnn1C (stereo not drawn) [CBK284478]	89.9
CC1CCc2nn(CCNC(=O)Cc3ccc(F)cc3)c(=O)cc2C1 (stereo not drawn) [CBK284485]	92.5
O=C(c1ccco1)N1CCC(c2onc3c2CCCCC3)CC1 [CBK284486]	91
O=C(C1CCCO1)N1CCC(c2onc3c2CCCCC3)CC1 (stereo not drawn) [CBK284487]	98.4
Cc1ccc(C2Nc3ccccc3C3=NCCCN32)o1 (stereo not drawn) [CBK284488]	103
CC(=O)Nc1nc(-c2cccs2)c(-c2cc(C)no2)s1 [CBK284493]	98.9
COc1ccc(-n2ncc3c2CCCN(C(=O)C2CC2)C3)cc1 [CBK284498]	84.3
Cc1ccc(CC(=O)N2CCc3nn(C(C)C)c(=O)cc3C2)cc1 [CBK284499]	93.6
Cc1cc(-c2cc3nc(C)c(C)c(O)n3n2)c(C)o1 [CBK284500]	90.4
COc1ccc(-n2ncc3c2CCCN(C(=O)C2CCCC2)C3)cc1 [CBK284501]	78
O=C(O)c1ccc(-n2ccnc2)c(C#Cc2ccccc2)c1 [CBK284502]	89.5
O=C(C1CC1)N1CCC2(CC1)Nc1cccnc1-n1cccc12 [CBK284504]	107
O=C(c1ccco1)N1CCC2(CC1)Nc1cccnc1-n1cccc12 [CBK284506]	85.3
CCC(CC)C(=O)N1CCC2(CC1)Nc1cccnc1-n1cccc12 [CBK284508]	80.7
Cn1cccc1C1(O)CCCC2CN(C(=O)c3ccco3)CC21 (stereo not drawn) [CBK284509]	99.9
OC1(c2cccnc2)CCCC2CN(Cc3ccc(F)c(F)c3)CC21 (stereo not drawn) [CBK284511]	101
